From PubChem BioAssay AID248 (DTP/NCI, 2004)
Several values for one entry are separate records, joined by “and”; a condition that tells them apart may be missing. Equal values may be shown once. Inconclusive results and toxic doses are left out. No stated cut-off is given here; in the data, active means T/C of 150% or more; inactive means T/C below 125%.

Test system: L1210 leukemia ip in BDF1 mice, survival T/C
Experiment: NCI In Vivo Anticancer Drug Screen. Data for tumor model L1210 Leukemia (intraperitoneal) in B6D2F1 (BDF1) mice
Conditions: endpoint: mean survival time, higher = longer survival
Outline: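 Tumor was transplanted into mice, which were then dosed with test compound or vehicle alone. Survival was recorded for each group, and the treated figure was expressed relative to the control figure.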

[1] = dose: 100.0 mg/kg/injection, schedule: Q01DX009 (ip), vehicle: saline with Tween-80
[2] = dose: 200.0 mg/kg/injection, schedule: Q01DX009 (ip), vehicle: saline with Tween-80
[3] = dose: 400.0 mg/kg/injection, schedule: Q01DX009 (ip), vehicle: saline with Tween-80
[4] = dose: 50.0 mg/kg/injection, schedule: Q01DX001 (ip), vehicle: saline
[5] = dose: 100.0 mg/kg/injection, schedule: Q01DX001 (ip), vehicle: saline
[6] = dose: 100.0 mg/kg/injection, schedule: Q01DX009 (ip), vehicle: Klucel (hydroxypropylcellulose) (HPC)
[7] = dose: 100.0 mg/kg/injection, schedule: Q04DX002 (ip), vehicle: Klucel (hydroxypropylcellulose) (HPC)
[8] = dose: 200.0 mg/kg/injection, schedule: Q01DX009 (ip), vehicle: Klucel (hydroxypropylcellulose) (HPC)
[9] = dose: 200.0 mg/kg/injection, schedule: Q04DX002 (ip), vehicle: Klucel (hydroxypropylcellulose) (HPC)
[10] = dose: 400.0 mg/kg/injection, schedule: Q01DX009 (ip), vehicle: Klucel (hydroxypropylcellulose) (HPC)
[11] = dose: 100.0 mg/kg/injection, schedule: Q04DX003 (ip), vehicle: saline with Tween-80
[12] = dose: 200.0 mg/kg/injection, schedule: Q04DX003 (ip), vehicle: saline with Tween-80
[13] = dose: 400.0 mg/kg/injection, schedule: Q04DX003 (ip), vehicle: saline with Tween-80
[14] = dose: 100.0 mg/kg/injection, schedule: Q04DX003 (ip), vehicle: Klucel (hydroxypropylcellulose) (HPC)
[15] = dose: 200.0 mg/kg/injection, schedule: Q04DX003 (ip), vehicle: Klucel (hydroxypropylcellulose) (HPC)
[16] = dose: 400.0 mg/kg/injection, schedule: Q04DX003 (ip), vehicle: Klucel (hydroxypropylcellulose) (HPC)
[17] = dose: 200.0 mg/kg/injection, schedule: Q01DX001 (ip), vehicle: saline
[18] = dose: 400.0 mg/kg/injection, schedule: Q01DX001 (ip), vehicle: saline

Measured: T/C

Cn1c(=O)c2c(ncn2CCO)n(C)c1=O (tested in a mixture with another compound)
inactive: [1] 89 % of control | dose: 100.0 mg/kg/injection, schedule: Q04DX003 (ip), vehicle: saline 103 % of control | [2] 94 % of control | dose: 200.0 mg/kg/injection, schedule: Q04DX003 (ip), vehicle: saline 97 % of control | [3] 87 % of control | dose: 400.0 mg/kg/injection, schedule: Q04DX003 (ip), vehicle: saline 108 % of control

NCCNCCNCCN1CC1
inactive: dose: 10.0 mg/kg/injection, schedule: Q04DX002 (ip), vehicle: saline 97 % of control | dose: 20.0 mg/kg/injection, schedule: Q04DX002 (ip), vehicle: saline 97 % of control

Cc1ccc(CN(C)C)c(C(O)c2ccccc2)c1 (stereo unspecified)
inactive: [4] 96 % of control | [5] 96 % of control

CCCCN1C(=O)C(=O)N(c2ccccc2C(F)(F)F)C1=O
inactive: [6] 106 % of control and 88 % of control | [7] 94 % of control and 105 % of control | [8] 106 % of control | [9] 101 % of control and 90 % of control | [10] 107 % of control | dose: 400.0 mg/kg/injection, schedule: Q04DX002 (ip), vehicle: Klucel (hydroxypropylcellulose) (HPC) 94 % of control and 116 % of control

COC(=O)C1OCOC2C(CO)OCOC12 (stereo unspecified)
inactive: dose: 100.0 mg/kg/injection, schedule: Q04DX002 (ip), vehicle: saline 91 % of control | [11] 91 % of control | dose: 200.0 mg/kg/injection, schedule: Q04DX002 (ip), vehicle: saline 117 % of control | [12] 86 % of control | dose: 400.0 mg/kg/injection, schedule: Q04DX002 (ip), vehicle: saline 106 % of control

C[Si](C)(C)c1cccc(-c2ccccc2)c1
inactive: dose: 25.6 mg/kg/injection, schedule: Q04DX002 (ip), vehicle: saline with Tween-80 93 % of control | dose: 64.0 mg/kg/injection, schedule: Q04DX002 (ip), vehicle: saline with Tween-80 104 % of control | [11] 101 % of control | dose: 160.0 mg/kg/injection, schedule: Q04DX002 (ip), vehicle: saline with Tween-80 97 % of control | [12] 92 % of control | dose: 400.0 mg/kg/injection, schedule: Q04DX002 (ip), vehicle: saline with Tween-80 97 % of control | [13] 101 % of control

Cc1cccn2c(=O)cc(Cl)nc12
inactive: dose: 100.0 mg/kg/injection, schedule: Q01DX001 (ip), vehicle: carboxymethylcellulose (CMC) 96 % of control | dose: 200.0 mg/kg/injection, schedule: Q01DX001 (ip), vehicle: carboxymethylcellulose (CMC) 98 % of control

C=C(Cl)CN(C)CC(=C)Cl
inactive: [5] 102 % of control

CN(C)Cc1ccccc1COC(=O)c1cccc(Br)c1
inactive: [7] 98 % of control | [9] 102 % of control

O=C1CCCCC1(CCc1ccncc1)CCc1ccncc1
inactive: dose: 44.0 mg/kg/injection, schedule: Q01DX Z (ip), vehicle: methylcellulose (MC) 96 % of control | dose: 66.0 mg/kg/injection, schedule: Q01DX Z (ip), vehicle: methylcellulose (MC) 102 % of control | dose: 100.0 mg/kg/injection, schedule: Q01DX Z (ip), vehicle: methylcellulose (MC) 109 % of control

O=[N+]([O-])c1cc2c3ccccc3ccc2c2ccccc12
inactive: [6] 96 % of control | [14] 95 % of control | [8] 94 % of control | [15] 97 % of control | [10] 100 % of control | [16] 94 % of control

Cc1cc(Cl)nc2ccc3ccccc3c12
inactive: [5] 96 % of control | [17] 93 % of control | [18] 89 % of control

NC1=NC=NC(c2ccccc2)N1c1ccccc1F (stereo unspecified)
inactive: dose: 25.0 mg/kg/injection, schedule: Q01DX001 (ip), vehicle: saline 101 % of control | [4] 96 % of control | [5] 104 % of control

CC(=O)Oc1ccc(C2CC(=O)OC2=O)cc1 (stereo unspecified)
inactive: [1] 105 % of control | [11] 92 % of control | [2] 97 % of control | [12] 91 % of control | [3] 87 % of control | [13] 92 % of control

COC(=O)C1C2C(C)CC3(CC12C)OCCO3 (stereo unspecified)
inactive: dose: 100.0 mg/kg/injection, schedule: Q01DX009 (ip), vehicle: saline sonified 92 % of control | [14] 102 % of control | dose: 200.0 mg/kg/injection, schedule: Q01DX009 (ip), vehicle: saline sonified 97 % of control | [15] 93 % of control | dose: 400.0 mg/kg/injection, schedule: Q01DX009 (ip), vehicle: saline sonified 92 % of control | [16] 86 % of control

CCSc1nc2nccnc2c(=O)[nH]1
inactive: [6] 98 % of control | [14] 97 % of control | [8] 102 % of control | [15] 92 % of control | [10] 102 % of control | [16] 92 % of control

Cc1ccc(C2(C)CC/C(=N/N=C3/CCC(C)(c4ccc(C)c(C)c4)c4cc(C)c(C)cc43)c3cc(C)c(C)cc32)cc1C (stereo unspecified)
inactive: [5] 93 % of control | [17] 101 % of control | [18] 98 % of control

NC(=O)/C=C/C(N)=O
inactive: dose: 25.0 mg/kg/injection, schedule: Q01DX009 (ip), vehicle: saline with Tween-80 91 % of control | dose: 50.0 mg/kg/injection, schedule: Q01DX009 (ip), vehicle: saline with Tween-80 88 % of control | [1] 88 % of control | [11] 89 % of control | [12] 94 % of control | [13] 92 % of control

CC(SC(C)C(=O)NN)C(=O)NN (stereo unspecified)
inactive: [4] 102 % of control | [5] 107 % of control | [17] 105 % of control | dose: 200.0 mg/kg/injection, schedule: Q01DX Z (ip), vehicle: carboxymethylcellulose (CMC) 94 % of control | dose: 296.0 mg/kg/injection, schedule: Q01DX Z (ip), vehicle: methylcellulose (MC) 98 % of control | dose: 370.0 mg/kg/injection, schedule: Q01DX Z (ip), vehicle: methylcellulose (MC) 104 % of control | [18] 100 % of control | dose: 400.0 mg/kg/injection, schedule: Q01DX Z (ip), vehicle: carboxymethylcellulose (CMC) 97 % of control | dose: 555.0 mg/kg/injection, schedule: Q01DX Z (ip), vehicle: methylcellulose (MC) 110 % of control | dose: 800.0 mg/kg/injection, schedule: Q01DX Z (ip), vehicle: carboxymethylcellulose (CMC) 111 % of control | dose: 833.0 mg/kg/injection, schedule: Q01DX Z (ip), vehicle: methylcellulose (MC) 119 % of control

c1ccc(Cc2cc(-c3ccccc3)n[nH]2)cc1
inactive: dose: 100.0 mg/kg/injection, schedule: Q01DX001 (ip), vehicle: Klucel (hydroxypropylcellulose) (HPC) 100 % of control | [6] 110 % of control | [14] 100 % of control | dose: 200.0 mg/kg/injection, schedule: Q01DX001 (ip), vehicle: Klucel (hydroxypropylcellulose) (HPC) 101 % of control | [8] 96 % of control | [15] 93 % of control | dose: 400.0 mg/kg/injection, schedule: Q01DX001 (ip), vehicle: Klucel (hydroxypropylcellulose) (HPC) 103 % of control | [10] 100 % of control | [16] 98 % of control

CC(=N\NS(=O)(=O)c1ccc(C)cc1)/C(C)=N/NS(=O)(=O)c1ccc(C)cc1
inactive: dose: 75.0 mg/kg/injection, schedule: Q01DX001 (ip), vehicle: saline 87 % of control | dose: 150.0 mg/kg/injection, schedule: Q01DX001 (ip), vehicle: saline 89 % of control | dose: 300.0 mg/kg/injection, schedule: Q01DX001 (ip), vehicle: saline 90 % of control

CN(C)CCCNc1c2ccccc2nc2cccc([N+](=O)[O-])c12
inactive: dose: 0.2 mg/kg/injection, schedule: Q04DX003 (ip), vehicle: saline 100 % of control | dose: 0.3 mg/kg/injection, schedule: Q04DX003 (ip), vehicle: saline 94 % of control | dose: 0.5 mg/kg/injection, schedule: Q04DX003 (ip), vehicle: saline 108 % of control
